Test results taken from patent publication US8495760B2, “Atomic force microscope manipulation of living cells” (The Board of Trustees of the Leland Stanford Junior …, priority 2010, dated 2013).

Tests used:
[1] = tested on: iPSC-CM; test: AFM measurement of beat force and beat rate of solitary iPSC-derived cardiomyocytes; type: cell-based, human
Source text: (§1) In step 1441, the nanoscale tip of the microscale cantilever of the AFM is controlled to apply gentle pressure to a location on the cardiomyocyte. […] In experimental embodiments described in more detail below, one or more cardiomyocytes were gently contacted by the cantilever tip with 100 pN of force, producing a typical cellular indentation of about 200 nm to about 500 nm. In various embodiments the contact force falls in a range from about 0.05 to about 1 nN. Thus, in some embodiments, a method includes operating a controller for the microscale cantilever to cause the nanoscale tip to contact the cardiomyocyte at a predetermined pressure.
(§2) In step 1443, the indentation is measured and the vertical deflection feedback is turned off to allow the cantilever to move with the contractions of the beating cardiomyocyte. […]
(§3) In step 1445, the time history of vertical deflection of the cantilever at the location on the cell is measured and recorded. FIG. 15 is a graph 1500 that illustrates an example measured force time series when the AFM cantilever interacts with the living cardiomyocyte, according to an embodiment. […]
(§4) In step 1447, beat characteristics of the cell are determined. For example, the beat force, duration (width) and rate (frequency) are determined based on the time history of vertical deflection in trace 1510. […]

[2] = tested on: hESC-CM; test: AFM measurement of beat force and beat rate of solitary hESC-derived cardiomyocytes; type: cell-based, human
Source text: as §1, §2, §3, §4

NC[C@H](O)c1ccc(O)c(O)c1 [norepinephrine, 4-[(1R)-2-amino-1-hydroxyethyl]benzene-1,2-diol]
beats faster than a cutoff of 1.7 beats/s ([1]; iPSC-CM after applying NE 100 μmol/L, 6% prior to treatment): 21% | contraction force (beat force) after treatment ([1]; solitary iPSC-CM, norepinephrine 100 μmol/L, immediately following treatment, before treatment 0.18±0.06 nN, p<0.001): 0.48±0.23 nN | effect on the beat rate ([2]; hESC-CM after treatment with norepinephrine 100 μmol/L): minimal effect | contraction force (beat force) after treatment ([2]; solitary hESC-CM, norepinephrine 100 μmol/L, immediately following treatment, before treatment 0.097±0.019 nN, p<0.001): 0.31±0.03 nN
